Data reported in publication PMC3909768 (Journal of Cancer, 2014).

What was measured:
[1] = system: AR-dependent PSA expression in prostate cancer cells LnCAP; assay: DHT-induced PSA expression in LnCAP cells; assay type: cell-based
AR = target: T1, AR (Homo sapiens, UniProt P10275); assay type: cell-based
T1 sequence (P10275 1-920): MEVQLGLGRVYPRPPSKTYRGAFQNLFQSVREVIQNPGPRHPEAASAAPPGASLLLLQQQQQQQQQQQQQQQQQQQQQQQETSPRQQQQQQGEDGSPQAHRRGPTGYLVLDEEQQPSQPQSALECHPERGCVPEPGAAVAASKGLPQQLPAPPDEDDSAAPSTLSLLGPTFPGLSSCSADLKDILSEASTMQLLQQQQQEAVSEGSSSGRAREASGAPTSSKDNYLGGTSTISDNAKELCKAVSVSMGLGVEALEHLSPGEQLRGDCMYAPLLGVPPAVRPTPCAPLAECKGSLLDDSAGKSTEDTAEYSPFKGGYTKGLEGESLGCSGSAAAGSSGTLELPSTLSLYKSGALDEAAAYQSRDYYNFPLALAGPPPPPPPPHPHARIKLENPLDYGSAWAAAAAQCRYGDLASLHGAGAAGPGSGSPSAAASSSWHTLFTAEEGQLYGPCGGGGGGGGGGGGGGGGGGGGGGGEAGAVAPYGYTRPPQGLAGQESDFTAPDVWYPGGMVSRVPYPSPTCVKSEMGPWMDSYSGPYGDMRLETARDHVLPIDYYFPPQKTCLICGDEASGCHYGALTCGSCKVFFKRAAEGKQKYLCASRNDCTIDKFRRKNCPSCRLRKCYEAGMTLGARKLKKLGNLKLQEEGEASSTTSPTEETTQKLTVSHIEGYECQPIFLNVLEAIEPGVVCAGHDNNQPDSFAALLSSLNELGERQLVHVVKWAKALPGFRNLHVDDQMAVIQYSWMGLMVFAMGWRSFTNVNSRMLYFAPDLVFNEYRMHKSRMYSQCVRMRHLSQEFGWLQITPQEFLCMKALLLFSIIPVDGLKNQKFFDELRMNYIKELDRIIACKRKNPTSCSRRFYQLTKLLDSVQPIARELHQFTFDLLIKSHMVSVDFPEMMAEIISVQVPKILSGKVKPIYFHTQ

## CNC(=O)c1ccc(N2C(=S)N(c3ccc(C#N)c(C(F)(F)F)c3)C(=O)[C@]23CCOC3)cc1F [ONC1-13B, 4-[(R)-3-(4-Cyano-3-trifluoromethyl-phenyl)-4-oxo-2-thioxo-7-oxa-1,3-diaza-spiro[4.4]non-1-yl]-2-fluoro-N-methyl-benzamide]
[1]
  fold more efficient than bicalutamide in inhibiting DHT-induced PSA expression: around 10 fold
AR
  inhibition of 6a-Fluotestosterone induced AR nuclear translocation, in words: completely inhibit
